In one test the test system is MCF7 cells. In words: Whole cell cytotoxicity assay: Sulforhodamine B. It is filed as cell-based, human. Particulars: Homo sapiens; compound at 100 μM; MCF7 cell growth; 48 hours with drug; SRB staining. Here is the method: The following procedure can be found on the Developmental Therapeutics Program NCI/NIH web site at http://dtp.nci.nih.gov/brancehes/btb/ivclsp.html.
1. Human tumor cell lines of HT29, A549 and MCF7 are grown in DMEM containing 10% fetal bovine serum and 2 mM L-glutamine. Cells are plated in a 96 well plate at a density of 5000 cells per well in 100 μL of growth medium and incubated at 37° C., 5% CO2, for 24 hours prior to the addition of experimental compounds.
2. Experimental drugs are solubilized in DMSO for a final concentration of 20 mM immediately prior to use. Drugs are further diluted in growth media for a total of nine drug concentrations and a growth control. At the 24 hour time point, one plate of cells is fixed in situ with TCA as a measurement of the cell population at time zero, or the time of drug addition.
3. The plates are further incubated with drug for an additional 48 hours.
4. The cells are fixed in situ by gently aspirating off the culture media and then adding 50 μL of ice cold 10% TCA per well and incubated at 4° C. for 60 minutes. The plates are washed with tap water five times and allowed to air dry for 5 minute.
5. 50 μL of a 0.4% (w/v) Sulforhodamine B solution in 1% (v/v) acetic acid is added per well and incubated for 30 minutes at room temperature.
6. Following staining, plates are washed five times with 1% acetic acid to remove any unbound dye and then allowed to air dry for 5 minutes.
7. Stain is solubilized with 100 μL of 10 mM Tris pH 10.5 per well and placed on an orbital rotator for 5 minutes.
8. Absorbance is read at 570 nm.

For test [1], the system named is Histone deacetylase (HDAC), HeLa cell nuclear extract. Put plainly: In vitro fluorescent histone deacetylase assay (Biomol kit, HeLa cell nuclear extract). Type of test: biochemical. Particulars: compound at 100 μM; HeLa cell nuclear extract as HDAC source; substrate 50 μM; 10 min at room temperature. The protocol:
Histone deacetylase (HDAC) activity assays were performed using the HDAC fluorescent activity assay/drug discovery kit (Biomol Research Laboratories, Plymouth Meeting, Pa.) essentially according to the manufacturer's instructions. The included HeLa cell nuclear extract, which contains a mosaic of HDAC enzymes and other nuclear factors, was used as the source of HDAC activity. The final substrate concentration in the assay mixture was 50 μM. The reaction was allowed to proceed for 10 min at room temperature before stopping the reaction. Test compounds were prepared as 20 mM stock solutions in DMSO (Molecular Biology grade, Sigma-Aldrich Co. St. Louis, Mo.) and stored at −70° C. Serial dilutions of test compounds were prepared in assay buffer immediately prior to testing. DMSO was determined in a separate trial to have no significant effect on the activity of this assay at concentrations up to 5%; the final DMSO concentration in the wells was no more than 2% and therefore DMSO effects were safely neglected. Assays were performed in white polystyrene 96-well half-area assay plates (Corning, Corning, N.Y.) and measured on a Wallace 1420 fluorescent plate reader (Wallac Oy, Turku, Finland) with an excitation wavelength of 355 nm, an emission wavelength of 460 nm, and a 1 sec signal averaging time.

As a reminder, the inhibition is the share of the control response that was lost under treatment. Higher therefore signals strong suppression. `CN(C)c1ccc(S(=O)(=O)N2CCN(c3ncc(C(=O)NO)s3)CC2)cc1` [Example 29, 2-[4-(4-dimethylaminophenylsulfonyl)-piperazin-1-yl]-thiazole-5-carboxylic acid hydroxyamide] showed an inhibition at 100 µM with MCF7 cells of 98.5%. In addition, the “% inhibition HDAC @ 100 μM” value in test [1] was found to be 100%.

In the test with MCF7 cells, `Cc1ccc(S(=O)(=O)N2CCN(c3ncc(C(=O)NO)s3)CC2)cc1Cl` [Example 30, 2-[4-(3-chloro-4-methylphenylsulfonyl)-piperazin-1-yl]-thiazole-5-carboxylic acid hydroxyamide] gave an inhibition at 100 µM of 97.9%. Besides, the “% inhibition HDAC @ 100 μM” value in test [1] came out at 99%.

Compound `Cc1c(Cl)cccc1S(=O)(=O)N1CCN(c2ncc(C(=O)NO)s2)CC1` [Example 32, 2-[4-(3-chloro-2-methylphenylsulfonyl)-piperazin-1-yl]-thiazole-5-carboxylic acid hydroxyamide] registered an inhibition at 100 µM in the test on MCF7 cells of 98.1%. Further, the “% inhibition HDAC @ 100 μM” value in test [1] is 99%.

Take `Cc1ccc(F)cc1S(=O)(=O)N1CCN(c2ncc(C(=O)NO)s2)CC1` [Example 33, 2-[4-(2-methyl-5-fluorophenylsulfonyl)-piperazin-1-yl]-thiazole-5-carboxylic acid hydroxyamide]: the inhibition at 100 µM in the test on MCF7 cells came out at 98.4%. Also, the “% inhibition HDAC @ 100 μM” value in test [1] is on record as 96%.

On to `O=C(NO)c1cnc(N2CCN(S(=O)(=O)c3ccccc3F)CC2)s1` [Example 34, 2-[4-(2-fluorophenylsulfonyl)-piperazin-1-yl]-thiazole-5-carboxylic acid hydroxyamide], for which, in the test on MCF7 cells, testing at 100 µM gave an inhibition of 97.7%. The “% inhibition HDAC @ 100 μM” value in test [1] is 92%.

The compound `O=C(NO)c1cnc(N2CCN(S(=O)(=O)c3cccc(F)c3)CC2)s1` [Example 35, 2-[4-(3-fluorophenylsulfonyl)-piperazin-1-yl]-thiazole-5-carboxylic acid hydroxyamide] registered an inhibition at 100 µM in the test on MCF7 cells of 97.9%. Further, in test [1], the “% inhibition HDAC @ 100 μM” value was found to be 97%.

For `O=C(NO)c1cnc(N2CCN(S(=O)(=O)c3ccc(F)c(F)c3)CC2)s1` [Example 36, 2-[4-(3,4-difluorophenylsulfonyl)-piperazin-1-yl]-thiazole-5-carboxylic acid hydroxyamide], the inhibition at 100 µM in the test with MCF7 cells is 98.2%. Besides, in test [1], the “% inhibition HDAC @ 100 μM” value amounted to 98%.

Consider `O=C(NO)c1cnc(N2CCN(S(=O)(=O)c3ccccc3C(F)(F)F)CC2)s1` [Example 37, 2-[4-(2-trifluoromethylphenylsulfonyl)-piperazin-1-yl]-thiazole-5-carboxylic acid hydroxyamide], for which 100 µM produced 98% inhibition with MCF7 cells. The “% inhibition HDAC @ 100 μM” value in test [1] stood at 99%.

`Cc1cccc(Cl)c1S(=O)(=O)N1CCN(c2ncc(C(=O)NO)s2)CC1` [Example 38]: the inhibition at 100 µM with MCF7 cells came out at 97.8%. Also, in test [1], the “% inhibition HDAC @ 100 μM” value is on record as 100%.

`Cc1ccc(S(=O)(=O)N2CCN(c3ncc(C(=O)NO)s3)CC2)cc1F` [Example 40, 2-[4-(3-fluoro-4-methylphenylsulfonyl)-piperazin-1-yl]-thiazole-5-carboxylic acid hydroxyamide] returned an inhibition at 100 µM in the test with MCF7 cells of 99.1%. In test [1], the “% inhibition HDAC @ 100 μM” value stood at 100%.

On to `Cc1cc(F)ccc1S(=O)(=O)N1CCN(c2ncc(C(=O)NO)s2)CC1` [Example 41, 2-[4-(4-fluoro-2-methylphenylsulfonyl)-piperazin-1-yl]-thiazole-5-carboxylic acid hydroxyamide], for which at 100 µM the inhibition in the test with MCF7 cells was 98.1%. Moreover, the “% inhibition HDAC @ 100 μM” value in test [1] is recorded as 98%.

As for `O=C(NO)c1cnc(N2CCN(S(=O)(=O)c3cc4ccccc4s3)CC2)s1` [Example 43], the inhibition at 100 µM in the test with MCF7 cells turned out to be 91%. Further, the “% inhibition HDAC @ 100 μM” value in test [1] came out at 99%.

`CSc1nccc(-c2ccc(S(=O)(=O)N3CCN(c4ncc(C(=O)NO)s4)CC3)s2)n1` [Example 45, 2-[4-(2-{2-methylthiopyrimidine-4-yl}-5-thiophenesulfonyl)-piperazin-1-yl]-thiazole-5-carboxylic acid hydroxyamide] displayed an inhibition at 100 µM in the test with MCF7 cells of 78.7%. For the same compound, the “% inhibition HDAC @ 100 μM” value in test [1] is given as 95%.

Regarding `O=C(NO)c1cnc(N2CCN(S(=O)(=O)c3ccc4nsnc4c3)CC2)s1` [Example 46, 2-[4-(2,1,3-benzothiadiazole-5-sulfonyl)-piperazin-1-yl]-thiazole-5-carboxylic acid hydroxyamide], 100 µM produced 77.3% inhibition in the test with MCF7 cells. The “% inhibition HDAC @ 100 μM” value in test [1] is reported as 98%.

In the test on MCF7 cells, `O=C(NO)c1cnc(N2CCN(S(=O)(=O)c3ccc(Oc4ccccc4)nc3)CC2)s1` [Example 47, 2-[4-(2-phenoxypyridine-5-sulfonyl)-piperazin-1-yl]-thiazole-5-carboxylic acid hydroxyamide] came in with an inhibition at 100 µM of 90.2%. Further, in test [1], the “% inhibition HDAC @ 100 μM” value is given as 96%.

On to `CN1CCOc2cc(S(=O)(=O)N3CCN(c4ncc(C(=O)NO)s4)CC3)ccc21` [Example 48, 2-[4-(N-methyl-2,3-dihydrobenzisoxazinylsulfonyl)-piperazin-1-yl]-thiazole-5-carboxylic acid hydroxyamide], for which the inhibition at 100 µM in the test with MCF7 cells was determined as 89.4%. Besides, the “% inhibition HDAC @ 100 μM” value in test [1] is 96%.

Consider `O=C(NO)c1cnc(N2CCN(S(=O)(=O)c3cccnc3)CC2)s1` [Example 49, 2-[4-(pyridine-3-sulfonyl)-piperazin-1-yl]-thiazole-5-carboxylic acid hydroxyamide], for which, in the test on MCF7 cells, the inhibition at 100 µM came to 95.4%. For the same compound, the “% inhibition HDAC @ 100 μM” value in test [1] is reported as 85%.

In turn, `Cc1ccc(S(=O)(=O)N2CCN(c3ncc(C(=O)NO)s3)CC2)cc1C` [Example 50, 2-[4-(3,4-dimethylphenylsulfonyl)-piperazin-1-yl]-thiazole-5-carboxylic acid hydroxyamide] displayed an inhibition at 100 µM with MCF7 cells of 98.3%. In addition, the “% inhibition HDAC @ 100 μM” value in test [1] was 99%.

With `O=C(NO)c1cnc(N2CCN(S(=O)(=O)c3cccc(-c4ccccc4)c3)CC2)s1` [Example 51, 2-[4-(3-biphenylsulfonyl)-piperazin-1-yl]-thiazole-5-carboxylic acid hydroxyamide], testing at 100 µM in the test on MCF7 cells gave an inhibition of 97%. In addition, the “% inhibition HDAC @ 100 μM” value in test [1] turned out to be 100%.

`CCCCS(=O)(=O)N1CCN(c2ncc(C(=O)NO)s2)CC1` [Example 53, 2-[4-(n-butylsulfonyl)piperazin-1-yl]-thiazole-5-carboxylic acid hydroxyamide]: the inhibition at 100 µM in the test with MCF7 cells is 89.9%. The “% inhibition HDAC @ 100 μM” value in test [1] is 94%.

In turn, `O=C(NO)c1cnc(N2CCN(S(=O)(=O)c3ccc(Br)s3)CC2)s1` [Example 55, 2-{4-[(5-bromothien-2-yl)sulfonyl]piperazin-1-yl}-N-hydroxy-1,3-thiazole-5-carboxamide] showed an inhibition at 100 µM in the test with MCF7 cells of 0%. Also, the “% inhibition HDAC @ 100 μM” value in test [1] was found to be 9%.

`O=C(NO)c1cnc(N2CCN(S(=O)(=O)c3ccc(-c4ccc(F)cc4)cc3)CC2)s1` [Example 56, 2-{4-[(4′-fluoro-1,1′-biphenyl-4-yl)sulfonyl]piperazin-1-yl}-1,3-thiazole-5-carboxylic acid hydroxyamide] registered an inhibition at 100 µM in the test on MCF7 cells of 96.9%. Also, the “% inhibition HDAC @ 100 μM” value in test [1] was found to be 98%.

In the test on MCF7 cells, `O=C(NO)c1cnc(N2CCN(S(=O)(=O)c3ccc(-c4cccc(Cl)c4)cc3)CC2)s1` [Example 57, 2-{4-[(3′-chloro-1,1′-biphenyl-4-yl)sulfonyl]piperazin-1-yl}-1,3-thiazole-5-carboxylic acid hydroxyamide] came in with an inhibition at 100 µM of 68.6%. Also, the “% inhibition HDAC @ 100 μM” value in test [1] is recorded as 93%.

The values above are taken from patent publication US20050197336A1 (Miikana Therapeutics Corporation, priority 2004, published 2005).
